{"source": "paper doi:10.1101/2021.04.08.439011v1", "about": "(biorxiv, 2021)", "key": {"[1]": {"target": "AKT1 (Homo sapiens, UniProt P31749)", "conditions": "1 µM; binder"}, "[2]": {"target": "AURKA (Homo sapiens, UniProt O14965)", "conditions": "1 µM; binder"}, "[3]": {"target": "AXL (Homo sapiens, UniProt P30530)", "conditions": "1 µM; binder"}, "[4]": {"target": "CAMKK2 (Homo sapiens, UniProt Q96RR4)", "conditions": "1 µM; binder"}, "[5]": {"target": "CDC2L1 (Homo sapiens, UniProt P21127)", "sequence (P21127 whole entry)": "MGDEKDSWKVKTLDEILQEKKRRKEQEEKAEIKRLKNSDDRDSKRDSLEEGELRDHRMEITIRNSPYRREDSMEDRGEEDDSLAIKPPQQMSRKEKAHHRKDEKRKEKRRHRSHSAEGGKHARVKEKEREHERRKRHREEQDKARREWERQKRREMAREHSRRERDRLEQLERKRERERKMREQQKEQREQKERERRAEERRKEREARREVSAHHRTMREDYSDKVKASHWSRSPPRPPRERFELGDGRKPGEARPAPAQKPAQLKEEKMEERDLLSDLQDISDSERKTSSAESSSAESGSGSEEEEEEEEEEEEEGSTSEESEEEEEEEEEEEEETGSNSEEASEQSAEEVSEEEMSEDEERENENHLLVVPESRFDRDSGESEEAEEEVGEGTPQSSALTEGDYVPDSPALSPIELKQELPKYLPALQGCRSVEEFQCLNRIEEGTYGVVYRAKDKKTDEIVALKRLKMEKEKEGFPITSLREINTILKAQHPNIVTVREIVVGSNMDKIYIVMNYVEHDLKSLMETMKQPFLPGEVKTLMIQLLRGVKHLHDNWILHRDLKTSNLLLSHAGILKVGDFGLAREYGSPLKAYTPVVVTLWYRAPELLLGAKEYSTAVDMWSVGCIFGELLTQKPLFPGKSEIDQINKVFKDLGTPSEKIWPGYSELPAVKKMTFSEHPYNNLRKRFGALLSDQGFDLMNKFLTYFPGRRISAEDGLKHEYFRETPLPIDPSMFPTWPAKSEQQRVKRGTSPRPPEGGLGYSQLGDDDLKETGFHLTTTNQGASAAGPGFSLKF", "conditions": "1 µM; binder"}, "[6]": {"target": "CDC2L5 (Homo sapiens, UniProt Q14004)", "conditions": "1 µM; binder"}, "[7]": {"target": "CDK19 (Homo sapiens, UniProt Q9BWU1)", "conditions": "1 µM; binder"}, "[8]": {"target": "CLK4 (Homo sapiens, UniProt Q9HAZ1)", "conditions": "1 µM; binder"}, "[9]": {"target": "EGFR(S752-I759del) (Homo sapiens, UniProt P00533, DEL752-759)", "conditions": "1 µM; binder"}, "[10]": {"target": "ERK4 (Homo sapiens, UniProt P31152)", "conditions": "1 µM; binder"}, "[11]": {"target": "HIPK2 (Homo sapiens, UniProt Q9H2X6)", "conditions": "1 µM; binder"}, "[12]": {"target": "JAK1 (Homo sapiens, UniProt P23458)", "sequence (P23458 whole entry)": "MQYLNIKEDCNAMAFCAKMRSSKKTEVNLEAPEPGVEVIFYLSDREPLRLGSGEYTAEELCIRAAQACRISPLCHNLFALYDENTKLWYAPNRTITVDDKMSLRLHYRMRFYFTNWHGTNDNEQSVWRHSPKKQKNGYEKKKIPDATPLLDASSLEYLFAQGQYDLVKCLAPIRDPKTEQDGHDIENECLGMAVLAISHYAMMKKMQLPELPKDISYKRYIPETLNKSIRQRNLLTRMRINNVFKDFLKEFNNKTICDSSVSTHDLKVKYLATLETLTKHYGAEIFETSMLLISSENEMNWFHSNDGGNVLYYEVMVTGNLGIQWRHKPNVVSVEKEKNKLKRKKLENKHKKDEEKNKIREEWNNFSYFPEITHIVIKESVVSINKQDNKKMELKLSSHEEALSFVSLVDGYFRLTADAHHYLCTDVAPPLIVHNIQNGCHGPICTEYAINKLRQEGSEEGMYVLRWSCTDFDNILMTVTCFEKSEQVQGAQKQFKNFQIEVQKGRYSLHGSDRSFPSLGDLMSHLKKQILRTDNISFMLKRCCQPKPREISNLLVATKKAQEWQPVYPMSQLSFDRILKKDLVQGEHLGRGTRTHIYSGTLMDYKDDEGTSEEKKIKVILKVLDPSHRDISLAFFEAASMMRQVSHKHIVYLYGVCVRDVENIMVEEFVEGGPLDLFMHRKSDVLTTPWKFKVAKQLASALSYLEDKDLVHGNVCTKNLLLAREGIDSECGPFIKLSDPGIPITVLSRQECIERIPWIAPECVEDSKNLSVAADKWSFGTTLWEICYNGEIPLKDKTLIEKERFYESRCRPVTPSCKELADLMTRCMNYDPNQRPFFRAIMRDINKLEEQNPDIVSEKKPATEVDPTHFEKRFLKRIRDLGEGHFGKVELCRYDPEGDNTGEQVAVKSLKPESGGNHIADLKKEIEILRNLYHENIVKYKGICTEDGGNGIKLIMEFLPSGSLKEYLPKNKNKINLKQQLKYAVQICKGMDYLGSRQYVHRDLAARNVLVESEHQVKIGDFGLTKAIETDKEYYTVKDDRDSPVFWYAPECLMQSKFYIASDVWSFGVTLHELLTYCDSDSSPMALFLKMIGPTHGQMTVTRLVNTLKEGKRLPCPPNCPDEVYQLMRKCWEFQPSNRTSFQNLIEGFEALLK", "conditions": "binder"}, "[13]": {"target": "JNK2 (Homo sapiens, UniProt P45984)", "conditions": "1 µM; binder"}, "[14]": {"target": "JNK3 (Homo sapiens, UniProt P53779)", "conditions": "1 µM; binder"}, "[15]": {"target": "LOK (Homo sapiens, UniProt O94804)", "conditions": "1 µM; binder"}, "[16]": {"target": "MAP3K2 (Homo sapiens, UniProt Q9Y2U5)", "conditions": "1 µM; binder"}, "[17]": {"target": "MUSK (Homo sapiens, UniProt O15146)", "conditions": "1 µM; binder"}, "[18]": {"target": "NDR2 (Homo sapiens, UniProt Q9Y2H1)", "conditions": "1 µM; binder"}, "[19]": {"target": "NEK5 (Homo sapiens, UniProt Q6P3R8)", "conditions": "1 µM; binder"}, "[20]": {"target": "PAK6 (Homo sapiens, UniProt Q9NQU5)", "conditions": "1 µM; binder"}, "[21]": {"target": "PDPK1 (Homo sapiens, UniProt O15530)", "conditions": "1 µM; binder"}, "[22]": {"target": "PFTAIRE2 (Homo sapiens, UniProt Q96Q40)", "conditions": "1 µM; binder"}, "[23]": {"target": "PIK3C2G (Homo sapiens, UniProt O75747)", "sequence (O75747 whole entry)": "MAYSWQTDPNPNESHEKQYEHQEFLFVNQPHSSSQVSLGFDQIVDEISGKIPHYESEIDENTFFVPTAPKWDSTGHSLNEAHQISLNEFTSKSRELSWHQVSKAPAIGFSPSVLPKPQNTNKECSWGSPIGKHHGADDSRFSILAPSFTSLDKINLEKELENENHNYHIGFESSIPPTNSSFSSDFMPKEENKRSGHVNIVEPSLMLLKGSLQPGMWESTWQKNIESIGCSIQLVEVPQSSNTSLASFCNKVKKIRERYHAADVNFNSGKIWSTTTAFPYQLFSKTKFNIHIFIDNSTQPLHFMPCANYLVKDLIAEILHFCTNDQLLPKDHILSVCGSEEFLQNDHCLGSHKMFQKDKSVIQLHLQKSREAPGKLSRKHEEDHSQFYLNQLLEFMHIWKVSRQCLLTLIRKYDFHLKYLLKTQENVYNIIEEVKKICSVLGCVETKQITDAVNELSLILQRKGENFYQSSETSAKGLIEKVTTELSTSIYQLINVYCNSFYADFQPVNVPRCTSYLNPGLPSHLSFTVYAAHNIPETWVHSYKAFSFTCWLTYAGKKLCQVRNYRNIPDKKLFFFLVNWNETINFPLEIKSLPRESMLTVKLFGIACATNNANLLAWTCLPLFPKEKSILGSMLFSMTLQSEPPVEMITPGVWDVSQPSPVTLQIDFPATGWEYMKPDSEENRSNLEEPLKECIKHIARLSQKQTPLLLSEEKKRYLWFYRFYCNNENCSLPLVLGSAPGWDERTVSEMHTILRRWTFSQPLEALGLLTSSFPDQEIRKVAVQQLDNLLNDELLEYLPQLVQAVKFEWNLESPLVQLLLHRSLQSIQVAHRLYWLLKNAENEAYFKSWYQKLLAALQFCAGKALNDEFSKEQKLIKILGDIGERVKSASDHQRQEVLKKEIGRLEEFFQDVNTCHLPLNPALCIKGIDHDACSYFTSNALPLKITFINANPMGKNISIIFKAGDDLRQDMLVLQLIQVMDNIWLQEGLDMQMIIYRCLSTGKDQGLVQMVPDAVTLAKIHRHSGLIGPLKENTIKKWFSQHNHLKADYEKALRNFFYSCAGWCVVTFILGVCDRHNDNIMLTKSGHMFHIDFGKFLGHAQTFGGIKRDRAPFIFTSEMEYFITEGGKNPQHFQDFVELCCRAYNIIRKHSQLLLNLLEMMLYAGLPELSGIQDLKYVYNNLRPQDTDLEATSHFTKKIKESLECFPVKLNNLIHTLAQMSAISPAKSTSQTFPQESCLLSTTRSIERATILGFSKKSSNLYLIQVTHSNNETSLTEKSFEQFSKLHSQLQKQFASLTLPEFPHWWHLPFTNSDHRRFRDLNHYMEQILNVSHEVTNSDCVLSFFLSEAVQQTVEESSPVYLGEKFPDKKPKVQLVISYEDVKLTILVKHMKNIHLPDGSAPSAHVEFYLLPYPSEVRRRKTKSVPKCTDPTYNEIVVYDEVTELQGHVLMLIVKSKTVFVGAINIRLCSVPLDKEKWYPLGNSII", "conditions": "1 µM; binder"}, "[24]": {"target": "PIK3CG (Homo sapiens, UniProt P48736)", "conditions": "1 µM; binder"}, "[25]": {"target": "PRKG1 (Homo sapiens, UniProt Q13976)", "conditions": "1 µM; binder"}, "[26]": {"target": "RIPK1 (Homo sapiens, UniProt Q13546)", "conditions": "1 µM; binder"}, "[27]": {"target": "RPS6KA3 (Homo sapiens, UniProt P51812)", "sequence (P51812 whole entry)": "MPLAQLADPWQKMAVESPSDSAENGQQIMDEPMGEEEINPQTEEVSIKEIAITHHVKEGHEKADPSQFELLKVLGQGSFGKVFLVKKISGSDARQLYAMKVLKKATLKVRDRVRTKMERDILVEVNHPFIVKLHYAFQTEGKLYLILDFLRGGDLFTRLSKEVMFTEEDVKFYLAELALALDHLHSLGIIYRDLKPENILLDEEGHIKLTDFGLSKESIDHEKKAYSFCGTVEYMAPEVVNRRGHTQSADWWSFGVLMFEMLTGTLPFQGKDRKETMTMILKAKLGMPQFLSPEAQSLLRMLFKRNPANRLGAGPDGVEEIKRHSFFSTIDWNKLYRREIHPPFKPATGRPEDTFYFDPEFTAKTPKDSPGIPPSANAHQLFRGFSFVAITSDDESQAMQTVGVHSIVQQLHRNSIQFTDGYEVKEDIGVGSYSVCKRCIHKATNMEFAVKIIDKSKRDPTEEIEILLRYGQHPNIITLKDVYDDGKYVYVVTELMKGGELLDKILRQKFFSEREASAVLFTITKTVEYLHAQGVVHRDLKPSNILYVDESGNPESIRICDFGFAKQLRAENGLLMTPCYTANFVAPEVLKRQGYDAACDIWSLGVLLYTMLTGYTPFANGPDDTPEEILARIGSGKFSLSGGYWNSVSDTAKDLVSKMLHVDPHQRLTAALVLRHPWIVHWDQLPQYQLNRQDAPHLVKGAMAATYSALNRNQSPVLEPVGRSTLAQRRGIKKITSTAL", "conditions": "binder"}, "[28]": {"target": "RPS6KA4 (Homo sapiens, UniProt O75676)", "conditions": "Kin.Dom.1 N-terminal; binder"}, "[29]": {"target": "TTK (Homo sapiens, UniProt P33981)", "conditions": "1 µM; binder"}, "[30]": {"target": "ZAP70 (Homo sapiens, UniProt P43403)", "sequence (P43403 whole entry)": "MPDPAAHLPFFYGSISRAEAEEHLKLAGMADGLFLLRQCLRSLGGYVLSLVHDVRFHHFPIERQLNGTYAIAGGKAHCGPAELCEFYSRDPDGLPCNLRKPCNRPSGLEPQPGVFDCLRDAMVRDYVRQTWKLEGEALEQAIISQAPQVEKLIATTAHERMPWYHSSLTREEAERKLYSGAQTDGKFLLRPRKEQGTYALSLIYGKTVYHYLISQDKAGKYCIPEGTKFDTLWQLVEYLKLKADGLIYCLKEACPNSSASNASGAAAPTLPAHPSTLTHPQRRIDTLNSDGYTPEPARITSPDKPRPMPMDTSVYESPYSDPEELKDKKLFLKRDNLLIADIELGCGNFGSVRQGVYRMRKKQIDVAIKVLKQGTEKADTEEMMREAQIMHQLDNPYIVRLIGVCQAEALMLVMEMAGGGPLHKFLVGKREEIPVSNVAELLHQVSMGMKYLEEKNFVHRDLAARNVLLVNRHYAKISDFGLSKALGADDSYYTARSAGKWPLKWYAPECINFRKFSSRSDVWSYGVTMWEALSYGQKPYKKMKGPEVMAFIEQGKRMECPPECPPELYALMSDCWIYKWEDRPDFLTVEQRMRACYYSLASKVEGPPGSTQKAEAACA", "conditions": "1 µM; binder"}}, "note": "Like-named read-outs stand apart in the source and are kept apart here.", "data": [{"smiles": "CNc1ncc2cc(-c3ccc(-c4cccc(C)n4)cc3Cl)c(=O)n(C[C@H]3OC[C@H](N)CO3)c2n1", "note": "[compound 6, G-5555]", "values": [{"measurement": "Percent Control", "setting": "[1]", "result": 100, "unit": "%"}, {"measurement": "Percent Control", "setting": "[2]", "result": 43, "unit": "%"}, {"measurement": "Percent Control", "setting": "[3]", "result": 96, "unit": "%"}, {"measurement": "Percent Control", "setting": "[4]", "result": 100, "unit": "%"}, {"measurement": "Percent Control", "setting": "[5]", "result": 97, "unit": "%"}, {"measurement": "Percent Control", "setting": "[6]", "result": 97, "unit": "%"}, {"measurement": "Percent Control", "setting": "[7]", "result": 100, "unit": "%"}, {"measurement": "Percent Control", "setting": "[8]", "result": 100, "unit": "%"}, {"measurement": "Percent Control", "setting": "[9]", "result": 100, "unit": "%"}, {"measurement": "Percent Control", "setting": "[10]", "result": 100, "unit": "%"}, {"measurement": "Percent Control", "setting": "[11]", "result": 100, "unit": "%"}, {"measurement": "Percent Control", "setting": "[12]; JH1 domain catalytic", "result": 100, "unit": "%"}, {"measurement": "Percent Control", "setting": "[12]; JH2 domain pseudokinase, 1 µM", "result": 92, "unit": "%"}, {"measurement": "Percent Control", "setting": "[13]", "result": 75, "unit": "%"}, {"measurement": "Percent Control", "setting": "[14]", "result": 87, "unit": "%"}, {"measurement": "Percent Control", "setting": "[15]", "result": 2.1, "unit": "%"}, {"measurement": "Percent Control", "setting": "[16]", "result": 67, "unit": "%"}, {"measurement": "Percent Control", "setting": "[17]", "result": 100, "unit": "%"}, {"measurement": "Percent Control", "setting": "[18]", "result": 100, "unit": "%"}, {"measurement": "Percent Control", "setting": "[19]", "result": 100, "unit": "%"}, {"measurement": "Percent Control", "setting": "[20]", "result": 45, "unit": "%"}, {"measurement": "Percent Control", "setting": "[21]", "result": 71, "unit": "%"}, {"measurement": "Percent Control", "setting": "[22]", "result": 100, "unit": "%"}, {"measurement": "Percent Control", "setting": "[23]", "result": 100, "unit": "%"}, {"measurement": "Percent Control", "setting": "[24]", "result": 93, "unit": "%"}, {"measurement": "Percent Control", "setting": "[25]", "result": 100, "unit": "%"}, {"measurement": "Percent Control", "setting": "[26]", "result": 100, "unit": "%"}, {"measurement": "Percent Control", "setting": "[27]; Kin.Dom.1 N-terminal", "result": 65, "unit": "%"}, {"measurement": "Percent Control", "setting": "[27]; Kin.Dom.2 C-terminal, 1 µM", "result": 63, "unit": "%"}, {"measurement": "Percent Control", "setting": "[28]", "result": 100, "unit": "%"}, {"measurement": "Percent Control", "setting": "[29]", "result": 97, "unit": "%"}, {"measurement": "Percent Control", "setting": "[30]", "result": 100, "unit": "%"}]}]}
